Data reported in PubChem BioAssay AID540338 (Southern Research Specialized Biocontainment Screening …, 2011).
Activity calls are given as the source filed them.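 The calls were made as follows: active = cell viability below 70% of untreated cell signal at any tested dose; inactive = the rest.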

Test system: HEp-2 viability, luminescence (CellTiter-Glo)
Test: viability loss in uninfected HEp-2 cells – cell-based, synthesized compounds, set 12, cytotoxicity control for RSV antiviral project, dose response (AID 540338)

Question: `COCCCNC(=O)c1ccc(Cn2c(=O)c3ccccc3n(Cc3ccc(C)cc3)c2=O)cc1` was tested. Which CC50 did it give?
Answer: 69 µM

Question: `COCCCNC(=O)c1ccc(Cn2c(=O)c3ccccc3n(CC3CCCCC3)c2=O)cc1` was tested. Which CC50 did it give?
Answer: > 200 µM (inactive)

Question: Which CC50 does the source give for `COCCCNC(=O)c1ccc(Cn2c(=O)c3ccccc3n(Cc3cccnc3)c2=O)cc1` here?
Answer: 8 µM

Question: With `COCCCNC(=O)c1ccc(Cn2c(=O)c3ccccc3n(Cc3ccccn3)c2=O)cc1` as the molecule, how does the CC50 read?
Answer: 16 µM

Question: How did the CC50 turn out when `COCCCNC(=O)c1ccc(Cn2c(=O)c3ccccc3n(CCc3ccc(C)cc3)c2=O)cc1` was run?
Answer: < 1.6 µM

Question: How did the CC50 turn out when `COCCCNC(=O)c1ccc(Cn2c(=O)c3ccccc3n(CCc3ccc(C(F)(F)F)cc3)c2=O)cc1` was run?
Answer: 116 µM

Question: How did the CC50 turn out when `COCCCNC(=O)c1ccc(Cn2c(=O)c3ccccc3n(CCc3ccc(Br)cc3)c2=O)cc1` was run?
Answer: < 1.6 µM
